# Assay results taken from US20250333397A1 (REMIX THERAPEUTICS INC., priority 2021, published 2025).
# Read-outs that look alike come from different tables or passages of the source.
# Assays:
# Format in all cases: cell-based, human
# HTT mRNA = experiment: RT-qPCR splicing assay, HTT canonical (CJ) and alternative (AJ) junction mRNA; conditions: Homo sapiens; for AC50: read-out: HTT AJ (AC50, increase in AJ mRNA)
# Experimental: (§1) Compounds described herein were used to modulate RNA transcript abundance in cells. The expression of a target mRNA was measured by detecting the formation of an exon-exon junction in the canonical transcript (CJ). A compound mediated exon-inclusion event was detected by observing an increase in formation of a new junction with an alternative exon (AJ). Real-time qPCR assays were used to detect these splicing switches and interrogate the potency of various compounds towards different target genes. A high-throughput real time quantitative PCR (RT-qPCR) assay was developed to measure these two isoforms of the mRNA (CJ and AJ) for exemplary genes, such as HTT, SMN2, and MYB, together with a control housekeeping gene, GAPDH or GUSB or PPIA, used for normalization. Briefly, the A673 or K562 cell line was treated with various compounds described herein (e.g., compounds of Formula (I), (II), (III), (IV)). After treatment, the levels of the HTT, MYB, or SMN2 mRNA targets were determined from each sample of cell lysate by cDNA synthesis followed by qPCR.
# (§2) The A673 cell line was cultured in DMEM with 10% FBS. Cells were diluted with full growth media and plated in a 96-well plate (15,000 cells in 100ul media per well). The plate was incubated at 37° C. with 5% CO2 for 24 hours to allow cells to adhere. An 11-point 3-fold serial dilution of the compounds was made in DMSO then diluted in media in an intermediate plate. Compounds were transferred from the intermediate plate to the cell plate with the top dose at a final concentration of 10 uM in the well. Final DMSO concentration was kept at or below 0.25%. The cell plate was returned to the incubator at 37° C. with 5% CO2 for an additional 24 hours.
# (§3) The K562 cell line was cultured in IMDM with 10% FBS. For K562, cells were diluted with full growth media and plated in either a 96-well plate (50,000 cells in 50 uL media per well) or a 384-well plate (8,000-40,000 cells in 45 uL media per well). An 11-point 3-fold serial dilution of the compounds were made in DMSO then diluted in media in an intermediate plate.
# (§4) Compound was transferred from the intermediate plate to the cell plate with the top dose at a final concentration of 10 uM in the well. Final DMSO concentration was kept at or below 0.25%.
# (§5) Final volume was 100 uL for 96-well plate and 50 uL for 384-well plate. The cell plate was then placed in an incubator at 37° C. with 5% CO2 for 24 hours.
# (§6) The cells were then gently washed with 50 uL-100 uL cold PBS before proceeding to addition of lysis buffer. 30 uL-50 μL of room temperature lysis buffer with DNAse I (and optionally RNAsin) was added to each well. Cells were shaken/mixed thoroughly at room temperature for 5-10 minutes for lysis to take place and then 3 uL-5 μL of room temperature stop solution was added and wells were shaken/mixed again. After 2-5 minutes, the cell lysate plate was transferred to ice for RT-qPCR reaction setup. The lysates could also be frozen at −80° C. for later use.
# (§7) In some cases, a direct lysis buffer was used. An appropriate volume of 3× lysis buffer (10 mM Tris, 150 mM NaCl, 1.5%-2.5% Igepal and 0.1-1 U/uL RNAsin, pH 7.4) was directly added to either K562 or A673 cells in media and mixed by pipetting 3 times. The plates were then incubated at room temperature with shaking/rocking for 20-50 minutes to allow for lysis to take place. After this time, the cell lysate plate was transferred to ice to set up for the RT-qPCR reactions. The lysates could also be frozen at −80° C. for later use.
# (§8) To set up 10 uL RT-qPCR reactions, cell lysates were transferred to 384-well qPCR plates containing the master mix according to the table below. The plates were sealed, gently vortexed, and spun down before the run. The volumes were adjusted accordingly in some instances where the reaction was carried in 20 μL. The table below summarizes the components of the RT-qPCR reactions: […]
# MYB mRNA = experiment: RT-qPCR splicing assay, MYB canonical (CJ) and alternative (AJ) junction mRNA; conditions: Homo sapiens; for AC50: read-out: MYB AJ (AC50, increase in AJ mRNA)
# Experimental: as §1, §2, §3, §4, §5, §6, §7, §8
# SMN2 mRNA = experiment: RT-qPCR splicing assay panel, SMN2 canonical junction (CJ) mRNA; conditions: Homo sapiens
# Experimental: as §1, §2, §3, §4, §5, §6, §7, §8
# Target C mRNA = experiment: RT-qPCR splicing assay panel, Target C canonical junction (CJ) mRNA; conditions: Homo sapiens
# Experimental: as §1, §2, §3, §4, §5, §6, §7, §8
# [1] = 24 h, Table 3B, A673 or K562 cells, 24 h treatment
# [2] = 24 h, Table 3B, A673 or K562 cells, 24 h treatment, read-out: HTT CJ (IC50, decrease in CJ mRNA)
# [3] = Table 4B, gene panel, read-out: HTT (IC50, decrease in CJ mRNA levels)
# [4] = 24 h, Table 3B, A673 or K562 cells, 24 h treatment, read-out: MYB CJ (IC50, decrease in CJ mRNA)
# [5] = Table 4B, gene panel, read-out: MYB (IC50, decrease in CJ mRNA levels)
# [6] = Table 4B, gene panel, read-out: SMN2 (IC50, decrease in CJ mRNA levels)
# [7] = Table 4B, gene panel, read-out: Target C (IC50, decrease in CJ mRNA levels)
# [8] = 24 h, Table 3A, A673 or K562 cells, 24 h treatment
# [9] = 24 h, Table 3A, A673 or K562 cells, 24 h treatment, read-out: HTT CJ (IC50, decrease in CJ mRNA)
# [10] = canonical junction (CJ) mRNA, RT-qPCR panel, Table 4A, read-out: HTT, decrease in CJ mRNA levels, IC50
# [11] = 24 h, Table 3A, A673 or K562 cells, 24 h treatment, read-out: MYB CJ (IC50, decrease in CJ mRNA)
# [12] = canonical junction (CJ) mRNA, RT-qPCR panel, Table 4A, read-out: MYB, decrease in CJ mRNA levels, IC50
# [13] = canonical junction (CJ) mRNA, RT-qPCR panel, Table 4A, read-out: SMN2, decrease in CJ mRNA levels, IC50
# [14] = canonical junction (CJ) mRNA, RT-qPCR panel, Table 4A, read-out: Target C, decrease in CJ mRNA levels, IC50
Compound,AC50 (HTT mRNA; [1]),IC50 (HTT mRNA; [2]),IC50 (HTT mRNA; [3]),AC50 (MYB mRNA; [1]),IC50 (MYB mRNA; [4]),IC50 (MYB mRNA; [5]),IC50 (SMN2 mRNA; [6]),IC50 (Target C mRNA; [7]),AC50 (HTT mRNA; [8]),IC50 (HTT mRNA; [9]),IC50 (HTT mRNA; [10]),AC50 (MYB mRNA; [8]),IC50 (MYB mRNA; [11]),IC50 (MYB mRNA; [12]),IC50 (SMN2 mRNA; [13]),IC50 (Target C mRNA; [14])
Cc1nc2cc(O)c(-c3ccc(N4CCC(C)(NC(C)(C)C)C4)nn3)cc2o1 (centres unmarked) [Compound 837],1000 to 10000 nM,100 to 1000 nM,100 to 1000 nM,1000 to 10000 nM,1000 to 10000 nM,1000 to 10000 nM,100 to 1000 nM,1000 to 10000 nM,–,–,–,–,–,–,–,–
"CC(C)(C)N[C@H]1CCN(c2ccc(-c3ccc(-c4cn[nH]c4)cc3O)nn2)C1 [Compound 101, 2-{6-[(3S)-3-(tert-butylamino)pyrrolidin-1-yl]pyridazin-3-yl}-5-(1H-pyrazol-4-yl)phenol]",–,–,–,–,–,–,–,–,< 100 nM,< 100 nM,< 100 nM,< 100 nM,< 100 nM,< 100 nM,< 100 nM,< 100 nM
Oc1cc(-c2cnn3c2CCC3)c(F)cc1-c1ccc(N2CCC(NC3CCC3)C2)nn1 (centres unmarked) [Compound 443],–,–,–,–,–,–,–,–,1000 to 10000 nM,1000 to 10000 nM,1000 to 10000 nM,> 10000 nM,> 10000 nM,> 10000 nM,1000 to 10000 nM,> 10000 nM
COc1cc(-c2cc(O)c(-c3ccc(OC4CC(C)(C)NC(C)(C)C4)nn3)cc2F)cnn1 [Compound 272],–,–,–,–,–,–,–,–,< 100 nM,< 100 nM,< 100 nM,100 to 1000 nM,100 to 1000 nM,100 to 1000 nM,< 100 nM,100 to 1000 nM
"Cc1ncc(-c2ccc(-c3ccc(N4CCC(NC5CCC5)C4)nn3)c(O)c2)o1 (centres unmarked) [Compound 347, 2-{6-[3-(cyclobutylamino)pyrrolidin-1-yl]pyridazin-3-yl}-5-(2-methyl-1,3-oxazol-5-yl)phenol]",–,–,–,–,–,–,–,–,100 to 1000 nM,100 to 1000 nM,100 to 1000 nM,100 to 1000 nM,100 to 1000 nM,100 to 1000 nM,< 100 nM,100 to 1000 nM
Cc1nc2cc(O)c(-c3ccc(N4CC[C@H](N(C)C(C)(C)C)C4)nn3)cc2o1 [Compound 858],< 100 nM,< 100 nM,< 100 nM,100 to 1000 nM,100 to 1000 nM,100 to 1000 nM,< 100 nM,100 to 1000 nM,–,–,–,–,–,–,–,–
"COc1cc(-c2cc(O)c(-c3ccc(N4CCC(C)(NC5CCC5)C4)nn3)cc2F)cnn1 (centres unmarked) [Compound 310, 2-{6-[3-(cyclobutylamino)-3-methylpyrrolidin-1-yl]pyridazin-3-yl}-4-fluoro-5-(6-methoxypyridazin-4-yl)phenol]",–,–,–,–,–,–,–,–,100 to 1000 nM,< 100 nM,< 100 nM,100 to 1000 nM,100 to 1000 nM,100 to 1000 nM,< 100 nM,100 to 1000 nM
"COc1cc(-c2ccc(-c3ccc(N4CC[C@@H](N[C@H]5C[C@@H](F)C5)C4)nn3)c(O)c2)ncn1 [Compound 408, 5-(6-methoxypyrimidin-4-yl)-2-{6-[(3S)-3-{[(1s,3s)-3-fluorocyclobutyl]amino}pyrrolidin-1-yl]pyridazin-3-yl}phenol]",–,–,–,–,–,–,–,–,100 to 1000 nM,< 100 nM,< 100 nM,100 to 1000 nM,100 to 1000 nM,100 to 1000 nM,< 100 nM,100 to 1000 nM
Cc1nc2cc(O)c(-c3cnc(N4C[C@@H](C)N[C@@H](C5CC5)C4)nn3)cc2o1 [Compound 870],1000 to 10000 nM,1000 to 10000 nM,1000 to 10000 nM,1000 to 10000 nM,1000 to 10000 nM,1000 to 10000 nM,1000 to 10000 nM,1000 to 10000 nM,–,–,–,–,–,–,–,–
Cc1ncc(-c2ccc(-c3ccc(N4CCC(NC5CCC5)C4)nn3)nc2F)s1 (centres unmarked) [Compound 349],–,–,–,–,–,–,–,–,100 to 1000 nM,100 to 1000 nM,100 to 1000 nM,100 to 1000 nM,100 to 1000 nM,100 to 1000 nM,100 to 1000 nM,1000 to 10000 nM
Cn1ccc(-c2ccc(-c3ccc(N4CCC(NC5CCC5)C4)nn3)c(O)c2)nc1=O (centres unmarked) [Compound 306],–,–,–,–,–,–,–,–,1000 to 10000 nM,1000 to 10000 nM,1000 to 10000 nM,1000 to 10000 nM,1000 to 10000 nM,1000 to 10000 nM,100 to 1000 nM,1000 to 10000 nM
Cc1cn2nc(-c3ccc(-c4ccc(N5CCC(NC6CCC6)C5)nn4)c(O)c3)cc(C)c2n1 (centres unmarked) [Compound 317],–,–,–,–,–,–,–,–,100 to 1000 nM,< 100 nM,< 100 nM,100 to 1000 nM,100 to 1000 nM,100 to 1000 nM,100 to 1000 nM,100 to 1000 nM
CCC(C)(C)NC1CCN(c2ccc(-c3cc4oc(C)nc4cc3O)nn2)C1 (centres unmarked) [Compound 836],1000 to 10000 nM,100 to 1000 nM,100 to 1000 nM,1000 to 10000 nM,1000 to 10000 nM,1000 to 10000 nM,100 to 1000 nM,1000 to 10000 nM,–,–,–,–,–,–,–,–
COc1cc2cc(-c3ccc(N4CCC(NC(C)(C)C)C4)nn3)c(O)cc2nn1 (centres unmarked) [Compound 819],1000 to 10000 nM,1000 to 10000 nM,1000 to 10000 nM,1000 to 10000 nM,1000 to 10000 nM,1000 to 10000 nM,100 to 1000 nM,1000 to 10000 nM,–,–,–,–,–,–,–,–
CC1(C)CC(Oc2nnc(-c3ccc(-c4cn[nH]c4)cc3O)cc2C#N)CC(C)(C)N1 [Compound 423],–,–,–,–,–,–,–,–,1000 to 10000 nM,1000 to 10000 nM,1000 to 10000 nM,> 10000 nM,> 10000 nM,> 10000 nM,100 to 1000 nM,> 10000 nM
Oc1cc(-c2cnnc(C3CC3)c2)ccc1-c1ccc(N2CC[C@H](NC3CCC3)C2)nn1 [Compound 280],–,–,–,–,–,–,–,–,1000 to 10000 nM,1000 to 10000 nM,1000 to 10000 nM,> 10000 nM,1000 to 10000 nM,1000 to 10000 nM,100 to 1000 nM,> 10000 nM
